Results from patent US20250084056A1, “SUBSTITUTED OXOISOINDOLINYL PIPERIDINE-2,6-DIONE COMPOUNDS” (BRISTOL-MYERS SQUIBB COMPANY, priority 2023, published 2025).

How the values were obtained:
Type in all cases: cell-based
[1] = system: Phospho-Rb (Ser807/811); test: Phospho-Retinoblastoma (pRB) Cellular Assay; conditions: Homo sapiens, OVCAR-3, NIH OVCAR3 cells, 24 hours; for IC50: concentration giving 50% response; for Emax: maximum response, reference compound at 10 μM = 100%, read-out: pRB Ymax
Outline: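 Phospho-Rb (Ser807/811) kit read-out on EnVision after lysis (≥4 h, room temperature, dark) of OVCAR3 cells exposed to compound dilutions for 24 h. IC50 and maximum response Ymax are relative to a 10 μM reference compound defining 100%.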

[2] = biological target: GSPT1 (Homo sapiens, UniProt P15170+Q96SW2); test: GSPT1 Cellular Degradation Assay (DF15-GSPT1-ePL); parameters: expressed in transfected cells; conditions: DF15-GSPT1-ePL cells, 20 hours
Chain of GSPT1 (P15170 whole entry, the tested form may be a part): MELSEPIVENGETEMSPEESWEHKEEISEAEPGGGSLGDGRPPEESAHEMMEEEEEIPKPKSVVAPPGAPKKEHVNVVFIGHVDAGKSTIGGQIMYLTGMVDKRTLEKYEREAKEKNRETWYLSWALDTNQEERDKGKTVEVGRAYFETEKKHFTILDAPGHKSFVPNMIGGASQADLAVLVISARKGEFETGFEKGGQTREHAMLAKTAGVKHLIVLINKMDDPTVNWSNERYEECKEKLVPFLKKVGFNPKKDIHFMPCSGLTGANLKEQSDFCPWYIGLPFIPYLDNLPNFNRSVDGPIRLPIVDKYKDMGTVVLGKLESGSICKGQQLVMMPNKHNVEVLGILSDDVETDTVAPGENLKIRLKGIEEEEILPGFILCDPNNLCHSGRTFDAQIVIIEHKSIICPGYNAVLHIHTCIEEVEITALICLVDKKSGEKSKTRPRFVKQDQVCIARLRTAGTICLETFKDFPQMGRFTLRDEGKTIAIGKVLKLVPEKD
Chain of GSPT1 (Q96SW2 whole entry, the tested form may be a part): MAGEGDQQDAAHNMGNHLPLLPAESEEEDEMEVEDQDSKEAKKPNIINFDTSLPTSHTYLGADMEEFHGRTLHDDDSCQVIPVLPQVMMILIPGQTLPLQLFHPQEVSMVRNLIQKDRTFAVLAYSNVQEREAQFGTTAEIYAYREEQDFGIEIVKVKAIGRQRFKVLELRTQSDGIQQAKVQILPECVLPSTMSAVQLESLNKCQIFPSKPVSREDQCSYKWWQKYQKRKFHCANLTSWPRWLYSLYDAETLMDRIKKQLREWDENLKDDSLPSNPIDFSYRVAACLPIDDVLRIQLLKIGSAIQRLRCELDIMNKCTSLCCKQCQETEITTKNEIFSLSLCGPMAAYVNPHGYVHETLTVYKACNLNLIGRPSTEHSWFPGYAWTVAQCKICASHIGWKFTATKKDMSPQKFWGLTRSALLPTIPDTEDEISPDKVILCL
Chain of GSPT1 (Q16531 whole entry partner, the tested form may be a part): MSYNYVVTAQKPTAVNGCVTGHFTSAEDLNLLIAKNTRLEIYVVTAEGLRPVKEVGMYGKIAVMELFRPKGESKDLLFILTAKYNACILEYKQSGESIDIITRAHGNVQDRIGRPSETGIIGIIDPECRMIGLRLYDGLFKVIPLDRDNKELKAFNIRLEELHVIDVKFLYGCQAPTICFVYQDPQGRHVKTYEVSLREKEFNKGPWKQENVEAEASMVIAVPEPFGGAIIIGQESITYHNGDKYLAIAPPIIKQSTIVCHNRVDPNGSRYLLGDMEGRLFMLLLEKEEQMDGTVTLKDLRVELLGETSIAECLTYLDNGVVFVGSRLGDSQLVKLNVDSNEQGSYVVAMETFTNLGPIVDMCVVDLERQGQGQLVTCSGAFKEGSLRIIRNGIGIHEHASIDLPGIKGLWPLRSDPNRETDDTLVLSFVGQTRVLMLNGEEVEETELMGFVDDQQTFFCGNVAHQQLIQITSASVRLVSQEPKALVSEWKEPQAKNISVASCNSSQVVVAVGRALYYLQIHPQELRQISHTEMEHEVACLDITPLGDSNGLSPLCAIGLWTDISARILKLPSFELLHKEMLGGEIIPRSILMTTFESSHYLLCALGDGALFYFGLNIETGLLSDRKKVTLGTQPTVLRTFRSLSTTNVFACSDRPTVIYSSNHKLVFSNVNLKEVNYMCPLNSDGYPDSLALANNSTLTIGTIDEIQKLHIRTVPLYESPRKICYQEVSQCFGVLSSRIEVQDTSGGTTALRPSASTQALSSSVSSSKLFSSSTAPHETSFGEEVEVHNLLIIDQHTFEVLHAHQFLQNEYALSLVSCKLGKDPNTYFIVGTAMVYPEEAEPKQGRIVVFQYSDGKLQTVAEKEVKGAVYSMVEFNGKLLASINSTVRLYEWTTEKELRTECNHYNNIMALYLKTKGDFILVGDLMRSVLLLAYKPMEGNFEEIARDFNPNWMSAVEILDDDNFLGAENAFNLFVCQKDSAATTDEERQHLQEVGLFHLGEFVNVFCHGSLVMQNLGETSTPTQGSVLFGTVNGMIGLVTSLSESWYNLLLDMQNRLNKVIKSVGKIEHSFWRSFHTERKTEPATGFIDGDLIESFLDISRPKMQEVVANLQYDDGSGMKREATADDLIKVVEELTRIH
Outline: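 DC50 and Dmax were derived from chemiluminescence, with 75% response set by the reference compound at […]. Readout was ePL enzyme-fragment complementation in a DF15 line expressing chimeric GSPT1. Cells were exposed to compound for 20 h at 37 °C in RPMI 1640 with 10% FBS, cooled 30 min, then lysed with substrate for 60 min.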

[3] = biological target: Cyclin E1 (Homo sapiens, UniProt P24864+Q96SW2); test: Cyclin E1 Cellular Degradation Assay (MSD); parameters: endogenous in cells; host or cells: OVCAR3; conditions: for DC50 / Dmax: Cyclin E1 cellular degradation; for Dmax: maximum degradation; for Ratio of GSPT1 DC50/Cyclin E1 DC50: selectivity for degradation of Cyclin E1 over GSPT1
Chain of Cyclin E1 (P24864 whole entry): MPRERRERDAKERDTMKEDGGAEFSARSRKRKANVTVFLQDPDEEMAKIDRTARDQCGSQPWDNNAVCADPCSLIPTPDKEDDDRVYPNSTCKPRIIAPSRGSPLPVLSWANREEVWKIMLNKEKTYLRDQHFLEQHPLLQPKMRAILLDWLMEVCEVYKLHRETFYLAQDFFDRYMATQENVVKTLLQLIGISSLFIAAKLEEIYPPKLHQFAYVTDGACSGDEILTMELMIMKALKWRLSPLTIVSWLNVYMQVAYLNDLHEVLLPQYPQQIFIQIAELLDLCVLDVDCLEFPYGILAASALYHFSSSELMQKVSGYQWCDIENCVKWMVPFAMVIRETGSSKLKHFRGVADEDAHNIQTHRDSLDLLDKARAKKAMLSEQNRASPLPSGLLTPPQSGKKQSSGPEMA
Chain of Cyclin E1 (Q96SW2 whole entry): as the sequence (Q96SW2 whole entry, the tested form may be a part) above
Chain of Cyclin E1 (Q16531 whole entry partner): as the sequence (Q16531 whole entry partner, the tested form may be a part) above
Outline: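 Cyclin E1 remaining after 24 h compound exposure of OVCAR3 cells was quantified in lysates by electrochemiluminescent MSD sandwich assay. DC50 (50% response concentration) and Dmax (maximum response) were calculated, with 110% response set by a reference compound at […].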

SMILES | IC50 [1] [nM] | Emax [1] [%] | DC50 [2] [nM] | Dmax [2] [%] | DC50 [3] [nM] | Dmax [3] [%] | Ratio of GSPT1 DC50/Cyclin E1 DC50 [3]
O=C1CCC(N2Cc3ccc(COC(=O)Nc4ccc(Oc5ccccc5Cl)cc4)c(Oc4ccccc4)c3C2=O)C(=O)N1 (centres unmarked) [Example 66, [2-(2,6-dioxopiperidin-3-yl)-3-oxo-4-phenoxy-2,3-dihydro-1H-isoindol-5-yl]methyl N-[4-(2-chlorophenoxy)phenyl]carbamate] | 55 | 148 | > 14000 | 19 | 111 | 103 | >126
COc1c(COC(=O)Nc2ccc(C(C)(C)c3ccccc3)cc2)ccc2c1C(=O)N(C1CCC(=O)NC1=O)C2 (centres unmarked) [Example 41, [2-(2,6-dioxopiperidin-3-yl)-4-methoxy-3-oxo-2,3-dihydro-1H-isoindol-5-yl]methyl N-[4-(2-phenylpropan-2-yl)phenyl]carbamate] | 248 | 100 | > 14000 | 13 | 336 | 92 | >42
O=C1CCC(N2Cc3ccc(COC(=O)Nc4ccc(Oc5ccc(F)cc5F)cc4)c(O[C@@H]4CCCOC4)c3C2=O)C(=O)N1 (stereo partly drawn) [Example 145, [2-(2,6-dioxopiperidin-3-yl)-4-[(3R)-oxan-3-yloxy]-3-oxo-2,3-dihydro-1H-isoindol-5-yl]methyl N-[4-(2,4-difluorophenoxy)phenyl]carbamate] | 37 | 145 | > 14000 | 9 | 57 | 111 | >247
O=C1CCC(N2Cc3ccc(COC(=O)Nc4ccc(Oc5ccc(F)c(F)c5)cc4F)c(O[C@@H]4CCCOC4)c3C2=O)C(=O)N1 (stereo partly drawn) [Example 146, [2-(2,6-dioxopiperidin-3-yl)-4-[(3R)-oxan-3-yloxy]-3-oxo-2,3-dihydro-1H-isoindol-5-yl]methyl N-[4-(3,4-difluorophenoxy)-2-fluorophenyl]carbamate] | 38 | 133 | > 14000 | 8 | 47 | 112 | >296
COc1c(COC(=O)Nc2ccc(Oc3cc(F)c(F)cc3C)cc2)ccc2c1C(=O)N(C1CCC(=O)NC1=O)C2 (centres unmarked) [Example 78, [2-(2,6-dioxopiperidin-3-yl)-4-methoxy-3-oxo-2,3-dihydro-1H-isoindol-5-yl]methyl N-[4-(4,5-difluoro-2-methylphenoxy)phenyl]carbamate] | 165 | 126 | > 14000 | 2 | 316 | 113 | >44
CN(C)C(=O)COc1c(COC(=O)Nc2ccc(Oc3ccc(F)c(F)c3)cc2)ccc2c1C(=O)N(C1CCC(=O)NC1=O)C2 (centres unmarked) [Example 175, {4-[(dimethylcarbamoyl)methoxy]-2-(2,6-dioxopiperidin-3-yl)-3-oxo-2,3-dihydro-1H-isoindol-5-yl}methyl N-[4-(3,4-difluorophenoxy)phenyl]carbamate] | 30 | 128 | > 14000 | 11 | 45 | 110 | >308
O=C1CCC(N2Cc3ccc(COC(=O)Nc4ccc(Oc5ccc(F)cc5)cc4)c(OC4CCOCC4)c3C2=O)C(=O)N1 (centres unmarked) [Example 133, [2-(2,6-dioxopiperidin-3-yl)-4-(oxan-4-yloxy)-3-oxo-2,3-dihydro-1H-isoindol-5-yl]methyl N-[4-(4-fluorophenoxy)phenyl]carbamate] | 42 | 145 | > 14000 | 16 | 25 | 106 | >569
COCCOc1c(COC(=O)Nc2ccc(Oc3ccc(F)c(F)c3)cc2)ccc2c1C(=O)N(C1CCC(=O)NC1=O)C2 (centres unmarked) [Example 168, [2-(2,6-dioxopiperidin-3-yl)-4-(2-methoxyethoxy)-3-oxo-2,3-dihydro-1H-isoindol-5-yl]methyl N-[4-(3,4-difluorophenoxy)phenyl]carbamate] | 19 | 118 | > 14000 | 33 | 62 | 110 | >226
COc1c(COC(=O)Nc2ccc(Oc3ccccc3C)cc2)ccc2c1C(=O)N(C1CCC(=O)NC1=O)C2 (centres unmarked) [Example 101, [2-(2,6-dioxopiperidin-3-yl)-4-methoxy-3-oxo-2,3-dihydro-1H-isoindol-5-yl]methyl N-[4-(2-methylphenoxy)phenyl]carbamate] | 61 | 111 | > 14000 | 18 | 72 | 108 | >194
O=C1CCC(N2Cc3ccc(COC(=O)Nc4ccc(Oc5ccc(F)c(F)c5)cc4)c(OC4CCCC4)c3C2=O)C(=O)N1 (centres unmarked) [Example 151, [4-(cyclopentyloxy)-2-(2,6-dioxopiperidin-3-yl)-3-oxo-2,3-dihydro-1H-isoindol-5-yl]methyl N-[4-(3,4-difluorophenoxy)phenyl]carbamate] | 31 | 113 | > 14000 | 10 | 71 | 108 | >196
COc1c(COC(=O)Nc2ccc(Oc3ccc(F)cc3Cl)cc2F)ccc2c1C(=O)N(C1CCC(=O)NC1=O)C2 (centres unmarked) [Example 105, [2-(2,6-dioxopiperidin-3-yl)-4-methoxy-3-oxo-2,3-dihydro-1H-isoindol-5-yl]methyl N-[4-(2-chloro-4-fluorophenoxy)-2-fluorophenyl]carbamate] | 33 | 120 | > 14000 | 50 | 52 | 107 | >268
COc1c(COC(=O)Nc2ccc(Oc3cccc(F)c3)cc2F)ccc2c1C(=O)N(C1CCC(=O)NC1=O)C2 (centres unmarked) [Example 16, [2-(2,6-dioxopiperidin-3-yl)-4-methoxy-3-oxo-2,3-dihydro-1H-isoindol-5-yl]methyl N-[2-fluoro-4-(3-fluorophenoxy)phenyl]carbamate] | 130 | 105 | > 14000 | 46 | 161 | 107 | >87
O=C1CC[C@H](N2Cc3ccc(COC(=O)Nc4ccc(Oc5ccc(F)c(F)c5)cc4)c(OCCCc4ccccc4)c3C2=O)C(=O)N1 [Example 173, {2-[(3S)-2,6-dioxopiperidin-3-yl]-3-oxo-4-(3-phenylpropoxy)-2,3-dihydro-1H-isoindol-5-yl}methyl N-[4-(3,4-difluorophenoxy)phenyl]carbamate] | 129 | 127 | > 14000 | 14 | 156 | 105 | >89
COc1cc(Oc2ccc(F)c(Cl)c2)ccc1NC(=O)OCc1ccc2c(c1OC)C(=O)N(C1CCC(=O)NC1=O)C2 (centres unmarked) [Example 100, [2-(2,6-dioxopiperidin-3-yl)-4-methoxy-3-oxo-2,3-dihydro-1H-isoindol-5-yl]methyl N-[4-(3-chloro-4-fluorophenoxy)-2-methoxyphenyl]carbamate] | 140 | 118 | > 14000 | 33 | 327 | 112 | >43
